Source: patent publication US9440969B2, “Compounds and methods for kinase modulation, and indications therefor” (PLEXXIKON INC., priority 2009, dated 2016)

Tests used:
[1] = test system: COLO205 colon adenocarcinoma (B-Raf V600E mutation); assay: COLO205 cell growth inhibition (ATPlite luminescence); format: cell-based; details: Homo sapiens, COLO 205, 72 h, COLO205 cells, incubated 3 days with compound
Summary of the method: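 Cells seeded at 6×10^4 cells/mL in line-specific medium with 10% FBS, held overnight at 37°C, then given an 8-point 1:3 compound titration (top 10 μM final) for 3 days at 37°C, 5% CO2. ATP content read by ATPlite luminescence as a cell-number proxy; IC50 fitted from luminescence versus concentration.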

[2] = molecular target: CYP3A4(BFC) (Homo sapiens, UniProt P08684); assay: CYP3A4 inhibition (substrate BFC); format: in vitro ADME; details: read-out: Cyp IC50 (μM) 3A4(BFC)
Sequence of CYP3A4(BFC) (P08684 whole entry): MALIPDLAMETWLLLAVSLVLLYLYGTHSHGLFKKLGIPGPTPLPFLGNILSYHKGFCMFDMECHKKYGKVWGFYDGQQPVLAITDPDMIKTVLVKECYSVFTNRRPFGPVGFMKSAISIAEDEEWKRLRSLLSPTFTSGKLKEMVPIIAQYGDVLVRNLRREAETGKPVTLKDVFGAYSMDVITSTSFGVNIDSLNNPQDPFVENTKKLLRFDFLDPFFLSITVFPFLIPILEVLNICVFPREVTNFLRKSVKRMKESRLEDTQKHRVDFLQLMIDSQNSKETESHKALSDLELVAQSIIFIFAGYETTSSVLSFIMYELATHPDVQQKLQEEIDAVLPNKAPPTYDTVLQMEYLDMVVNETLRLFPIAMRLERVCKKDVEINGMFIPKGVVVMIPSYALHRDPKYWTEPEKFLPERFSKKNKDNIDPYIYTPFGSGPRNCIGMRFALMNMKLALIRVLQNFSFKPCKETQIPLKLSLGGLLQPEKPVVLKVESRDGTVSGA
Method: (§1) CYP (Cytochrome P450) enzymes are the major drug metabolizing enzymes present in the liver. The inhibition of CYP enzyme activity (IC50) for each of CYP1A2, CYP2C19, CYP2C9, CYP2D6, CYP3A4(BFC) and CYP3A4(BQ) is determined for compounds, where inhibition of metabolism of a known substrate leads to a decrease in the fluorescence of the metabolized product. The fluorescence of the product is monitored as a function of compound concentration. Compounds are dissolved in dimethyl sulfoxide to a concentration of 100 mM. These are diluted […], into 82 μL of acetonitrile. An 11 μL aliquot of this solution is then added to 204 μL of cofactor mix (1.3% NADPH Regeneration system Solution A, 1.04% NADPH Regeneration system Solution B from BD Biosciences, 5% acetonitrile and 0.05% dimethyl sulfoxide). These are then serially diluted 1:1 (160 μL to 160 μL co-factor mix) for a total of 10 points. A 10 μL aliquot of this final mixture is dispensed into 384 well assay plates and incubated for 10 minutes at 37° C. Enzyme and substrate mix (10 μL; 0.5 pmol CYP1A2/5 μM CEC; 1.0 pmol CYP2C9/75 μM MFC; 0.5 pmol CYP2C19/25 μM CEC; 1.5 pmol CYP2D6/1.5 μM AMMC; 1.0 pmol CYP3A4/50 μM BFC; or 1.0 pmol CYP3A4/40 μM BQ) is added to these assay plates. Assay plates are incubated at 37° C. (CYP1A2-15 min; CYP2C9-45 min; CYP2C19, 2D6 and 3A4-30 min) and read in a Tecan Safire 2 plate reader (CYP1A2, 2C19 and 3A4 409 ex/460 em; CYP2C9 and 2D6 409 ex/530 em). The signal versus compound concentration is used to determine the IC50. The enzymes and substrates for this assay are obtained from BD Biosciences.

[3] = test system: A375 melanoma (B-Raf V600E mutation); assay: A375 cell growth inhibition (ATPlite luminescence); format: cell-based; details: Homo sapiens, A-375, 72 h, A375 cells, incubated 3 days with compound
Method: Compounds are assessed in a variety of cell based assays. For example human cell lines with B-Raf V600E mutation (A375 melanoma, SKMEL3 melanoma, and COLO205 colon adenocarcinoma), as well as tumorigenic cell lines with wild-type B-RAF (SW620 colon adenocarcinoma) or with Ras mutations (SKMEL2 melanoma and IPC298 melanoma). Similar assays may be used to assess additional tumorigenic cell lines with Ras mutations, including, but not limited to, M202, M207, M243, M244, M296, S117, HCT116, HCT15, DLD1, MiaPaCa, A549, NCI-H23, NCI-H460, HOP62, MDA-MB231, Hs-578T, HL60, MOLT-4, and CCRF-CEM.
On day 1, cells are counted, then centrifuged in a conical tube for 5 minutes at 1000 rpm. The supernatant is removed and cells are re-suspended as follows: • SW620 (ATCC catalog #CCL-27): resuspend in Leibovitz's L-15 medium, 2 mM L-glutamine, 10% fetal bovine serum to 6×10^4 cells/mL. • A375 (ATCC catalog #CRL-1619): resuspend in Dulbecco's modified Eagle's medium, 4 mM L-glutamine, 4.5 g/L D-glucose, 10% fetal bovine serum to 6×10^4 cells/mL. • COLO205 (ATCC catalog #CCL-222): resuspend in RPMI 1640, 2 mM L-glutamine, 1.5 g/L sodium bicarbonate, 4.5 g/L D-glucose, 10 mM HEPES, 1.0 mM sodium pyruvate, 10% fetal bovine serum to 6×10^4 cells/mL. • SKMEL2 (ATCC catalog #HTB-68): resuspend in Minimum Eagle essential medium, 2 mM L-glutamine, 1.5 g/L sodium bicarbonate, 0.1 mM non-essential amino acids, 1.0 mM sodium pyruvate, 10% fetal bovine serum to 6×10^4 cells/mL. • SKMEL3 (ATCC catalog #HTB-69): resuspend in McCoy's 5A medium, 1.5 mM L-glutamine, 15% fetal bovine serum to 6×10^4 cells/mL. • IPC298 (DSMZ catalog #ACC 251): resuspend in RPMI 1640, 2 mM L-glutamine, 10% fetal bovine serum to 6×10^4 cells/mL.
The cells are plated, 50 μL in each well of a 96-well dish (Corning 3610) and incubated at 37° C. in 5% CO2 overnight, cells plated to a final concentration of cells as follows:
On day 2, compound at a maximum concentration of 5 mM is serially diluted 1:3 (e.g. 10 μL with 30 μL dimethyl sulfoxide) for a total of 8 point titration with DMSO as a control. A 1 μL aliquot of each dilution point and control is added to 249 μL growth media and 50 μL is added to a well containing cells, providing 10 μM compound at the maximum concentration point. The cells are incubated for 3 days at 37° C. in 5% CO2.
On day 5, ATPlite 1 step Luminescence Assay System (Perkin Elmer #6016739) is brought to room temperature along with the cell cultures. ATPlite is added 25 μL to each well, shake for 2 minutes, and the cells are incubated at room temperature for 10 minutes, then luminescence is read on Safire reader. The measured luminescence correlates directly with cell number, such that the reading as a function of compound concentration is used to determine the IC50 value.
It is understood that the results of these assays may vary as assay conditions are varied. Inhibition levels determined under the conditions described herein represent a relative activity for the compounds tested under the specific conditions employed. The cell based assays are likely to show variability due to the complexity of the system and the sensitivity thereof to any changes in the assay conditions. […] Results for compounds that are tested and show substantially no inhibition below the highest tested concentration are represented as “-” in the tables below. In some instances, the compounds were not tested in all of the assays, or assay results were not valid, as indicated by NA in the tables below.

[4] = molecular target: CYP3A4(BQ) (Homo sapiens, UniProt P08684); assay: CYP3A4 inhibition (substrate BQ); format: in vitro ADME; details: read-out: Cyp IC50 (μM) 3A4(BQ)
Sequence of CYP3A4(BQ) (P08684 whole entry): as above
Method: as §1

Structure (SMILES) | IC50 [1] | IC50 [2] | IC50 [3] | IC50 [4]
CNC(=O)n1ncc2cc(-c3cnc4[nH]cc(C(=O)c5c(F)ccc(NS(=O)(=O)c6cc(F)ccc6F)c5F)c4c3)ccc21 [P-0003, 5-{3-[3-(2,5-Difluoro-benzenesulfonylamino)-2,6-difluoro-benzoyl]-1H-pyrrolo[2,3-b]pyridin-5-yl}-indazole-1-carboxylic acid methylamide] | < 1 µM | > 10 µM | < 1 µM | –
CCCS(=O)(=O)Nc1ccc(F)c(C(=O)c2c[nH]c3ncc(-c4ccc5c(cnn5C(C)=O)c4)cc23)c1F [P-0007, propane-1-sulfonic acid {3-[5-(1-acetyl-1H-indazol-5-yl)-1H-pyrrolo[2,3-b]pyridine-3-carbonyl]-2,4-difluoro-phenyl}-amide] | < 1 µM | > 10 µM | > 1 µM | –
CCCS(=O)(=O)Nc1ccc(F)c(C(=O)c2c[nH]c3ncc(-c4cccc5nn(C)cc45)cc23)c1F [P-0015, Propane-1-sulfonic acid {2,4-difluoro-3-[5-(2-methyl-2H-indazol-4-yl)-1H-pyrrolo[2,3-b]pyridine-3-carbonyl]-phenyl}-amide] | < 1 µM | > 10 µM | < 1 µM | > 10 µM
CCCS(=O)(=O)Nc1ccc(F)c(C(=O)c2c[nH]c3ncc(-c4csc(-n5ccnc5C)n4)cc23)c1F [P-1101, Propane-1-sulfonic acid (2,4-difluoro-3-{5-[2-(2-methyl-imidazol-1-yl)-thiazol-4-yl]-1H-pyrrolo[2,3-b]pyridine-3-carbonyl}-phenyl)-amide] | < 1 µM | > 10 µM | < 1 µM | –

The next lines start with the values.

IC50 [1] | IC50 [2] | IC50 [3] | IC50 [4] | Structure (SMILES)
< 1 µM | > 10 µM | < 1 µM | – | CCCS(=O)(=O)Nc1ccc(F)c(C(=O)c2c[nH]c3ncc(-c4ccc5[nH]ncc5c4)cc23)c1F [P-0001, propane-1-sulfonic acid {2,4-difluoro-3-[5-(1H-indazol-5-yl)-1H-pyrrolo[2,3-b]pyridine-3-carbonyl]-phenyl}-amide]
< 1 µM | > 10 µM | < 1 µM | > 10 µM | CCCS(=O)(=O)Nc1ccc(F)c(C(=O)c2c[nH]c3ncc(-c4ccc5nn(C)cc5c4)cc23)c1F [P-0010, Propane-1-sulfonic acid {2,4-difluoro-3-[5-(2-methyl-2H-indazol-5-yl)-1H-pyrrolo[2,3-b]pyridine-3-carbonyl]-phenyl}-amide]
< 1 µM | > 10 µM | < 1 µM | > 10 µM | CCCS(=O)(=O)Nc1ccc(F)c(C(=O)c2c[nH]c3ncc(-c4ccc5cn(C)nc5c4)cc23)c1F [P-0011, Propane-1-sulfonic acid {2,4-difluoro-3-[5-(2-methyl-2H-indazol-6-yl)-1H-pyrrolo[2,3-b]pyridine-3-carbonyl]-phenyl}-amide]
< 1 µM | 5 to 10 µM | < 1 µM | > 10 µM | CCCS(=O)(=O)Nc1ccc(F)c(C(=O)c2c[nH]c3ncc(-c4ccc5[nH]ccc5c4)cc23)c1F [P-0012, Propane-1-sulfonic acid {2,4-difluoro-3-[5-(1H-indol-5-yl)-1H-pyrrolo[2,3-b]pyridine-3-carbonyl]-phenyl}-amide]
